Laboratory results reported in patent US10906873B2, “Substituted cyclic amides as herbicides” (FMC Corporation, priority 2015, dated 2021).

How the values were obtained:
Assay type in all cases: in vivo
[1] = system: wheat (Triticum aestivum); experiment: Test A postemergence, wheat; conditions: 0 to 100 scale
Text: (§1) Seeds of plant species selected from barnyardgrass (Echinochloa crus-galli), crabgrass (large crabgrass, Digitaria sanguinalis), kochia (Kochia scoparia), ragweed (common ragweed, Ambrosia elatior), morningglory (Ipomoea spp.), velvetleaf (Abutilon theophrasti), ryegrass, It. (Italian ryegrass, Lolium multiflorum), foxtail, giant (giant foxtail, Setaria faberii), wheat (Triticum aestivum), corn (Zea mays), and pigweed (Amaranthus retroflexus), were planted into a blend of loam soil and sand and treated preemergence with a directed soil spray using test chemicals formulated in a non-phytotoxic solvent mixture which included a surfactant. At the same time, plants selected from these crop and weed species and also blackgrass (Alopecurus myosuroides), and galium (catchweed bedstraw, Galium aparine), were planted in pots containing the same blend of loam soil and sand and treated with postemergence applications of test chemicals formulated in the same manner. Plants ranged in height from 2 to 10 cm and were in the one- to two-leaf stage for the postemergence treatment. Treated plants and untreated controls were maintained in a greenhouse for approximately 10 d, after which time all treated plants were compared to untreated controls and visually evaluated for injury. Plant response ratings, summarized in Table A, are based on a 0 to 100 scale where 0 is no effect and 100 is complete control. A dash (-) response means no test result.

corn (Zea mays) = experiment: Test A postemergence, corn; conditions: 0 to 100 scale
Text: as §1

[2] = system: ragweed (common ragweed, Ambrosia elatior); experiment: Test A postemergence, ragweed; conditions: 0 to 100 scale
Text: as §1

[3] = system: ragweed (common ragweed, Ambrosia elatior); experiment: Test A preemergence, ragweed; conditions: 0 to 100 scale
Text: as §1

[4] = system: ryegrass, It. (Italian ryegrass, Lolium multiflorum); experiment: Test A preemergence, ryegrass, It.; conditions: 0 to 100 scale
Text: as §1

[5] = system: barnyardgrass (Echinochloa crus-galli); experiment: Test B flooded paddy test, barnyardgrass; conditions: Flood, 500 g ai/ha; scale of 0 to 100 where 0 is no effect and 100 is complete control; 13 to 15 d
Description: (§2) Plant species in the flooded paddy test selected from rice (Oryza sativa), sedge, umbrella (small-flower umbrella sedge, Cyperus difformis), ducksalad (Heteranthera limosa), and barnyardgrass (Echinochloa crus-galli) were grown to the 2-leaf stage for testing. At time of treatment, test pots were flooded to 3 cm above the soil surface, treated by application of test compounds directly to the paddy water, and then maintained at that water depth for the duration of the test. Treated plants and controls were maintained in a greenhouse for 13 to 15 d, after which time all species were compared to controls and visually evaluated. Plant response ratings, summarized in Table B, are based on a scale of 0 to 100 where 0 is no effect and 100 is complete control. A dash (-) response means no test result.

[6] = system: foxtail, giant (giant foxtail, Setaria faberii); experiment: Test A postemergence, foxtail, giant; conditions: 0 to 100 scale
Text: as §1

[7] = system: ducksalad (Heteranthera limosa); experiment: Test B flooded paddy test, ducksalad; conditions: Flood, 500 g ai/ha; scale of 0 to 100 where 0 is no effect and 100 is complete control; 13 to 15 d
Description: as §2

[8] = system: blackgrass (Alopecurus myosuroides); experiment: Test A postemergence, blackgrass; conditions: 0 to 100 scale
Text: as §1

[9] = system: galium (catchweed bedstraw, Galium aparine); experiment: Test A postemergence, galium; conditions: 0 to 100 scale
Text: as §1

[10] = system: pigweed (Amaranthus retroflexus); experiment: Test A postemergence, pigweed; conditions: 0 to 100 scale
Text: as §1

[11] = system: ryegrass, It. (Italian ryegrass, Lolium multiflorum); experiment: Test A postemergence, ryegrass, It.; conditions: 0 to 100 scale
Text: as §1

[12] = system: pigweed (Amaranthus retroflexus); experiment: Test A preemergence, pigweed; conditions: 0 to 100 scale
Text: as §1

[13] = system: sedge, umbrella (small-flower umbrella sedge, Cyperus difformis); experiment: Test B flooded paddy test, sedge, umbrella; conditions: Flood, 500 g ai/ha; scale of 0 to 100 where 0 is no effect and 100 is complete control; 13 to 15 d
Description: as §2

kochia (Kochia scoparia) [14] = experiment: Test A preemergence, kochia; conditions: 0 to 100 scale
Text: as §1

[15] = system: barnyardgrass (Echinochloa crus-galli); experiment: Test A preemergence, barnyardgrass; conditions: 0 to 100 scale
Text: as §1

kochia (Kochia scoparia) [16] = experiment: Test A postemergence, kochia; conditions: 0 to 100 scale
Text: as §1

[17] = system: barnyardgrass (Echinochloa crus-galli); experiment: Test A postemergence, barnyardgrass; conditions: 0 to 100 scale
Text: as §1

[18] = system: foxtail, giant (giant foxtail, Setaria faberii); experiment: Test A preemergence, foxtail, giant; conditions: 0 to 100 scale
Text: as §1

rice (Oryza sativa) = experiment: Test B flooded paddy test, rice; conditions: Flood, 500 g ai/ha; scale of 0 to 100 where 0 is no effect and 100 is complete control; 13 to 15 d
Description: as §2

O=C1NCC(Cc2ccc(C(F)(F)F)cc2)C1C(=O)Nc1ccccc1C(F)(F)F (stereo not drawn) [Compound 6]
Plant response rating, Wheat ([1]; 125 g ai/ha): 0
Plant response rating, Wheat ([1]; 500 g ai/ha): 0
Plant response rating, Corn (corn (Zea mays); 125 g ai/ha): 0
Plant response rating, Corn (corn (Zea mays); 500 g ai/ha): 0
Plant response rating, Ragweed ([2]; 125 g ai/ha): 0
Plant response rating, Ragweed ([2]; 500 g ai/ha): 0
Plant response rating, Ragweed ([3]; 125 g ai/ha): 0
Plant response rating, Ragweed ([3]; 500 g ai/ha): 0
Plant response rating, Ryegrass, It. ([4]; 125 g ai/ha): 0
Plant response rating, Ryegrass, It. ([4]; 500 g ai/ha): 0
Plant response rating, Barnyardgrass [5]: 0
Plant response rating, Foxtail, Giant ([6]; 125 g ai/ha): 0
Plant response rating, Foxtail, Giant ([6]; 500 g ai/ha): 0
Plant response rating, Ducksalad [7]: 0
Plant response rating, Blackgrass ([8]; 125 g ai/ha): 0
Plant response rating, Blackgrass ([8]; 500 g ai/ha): 0
Plant response rating, Galium ([9]; 125 g ai/ha): 0
Plant response rating, Galium ([9]; 500 g ai/ha): 0
Plant response rating, Pigweed ([10]; 125 g ai/ha): 0
Plant response rating, Pigweed ([10]; 500 g ai/ha): 0
Plant response rating, Ryegrass, It. ([11]; 125 g ai/ha): 0
Plant response rating, Ryegrass, It. ([11]; 500 g ai/ha): 0
Plant response rating, Pigweed ([12]; 125 g ai/ha): 0
Plant response rating, Pigweed ([12]; 500 g ai/ha): 0
Plant response rating, Sedge, Umbrella [13]: 0
Plant response rating, Kochia (kochia (Kochia scoparia) [14]; 125 g ai/ha): 0
Plant response rating, Kochia (kochia (Kochia scoparia) [14]; 500 g ai/ha): 0
Plant response rating, Barnyardgrass ([15]; 125 g ai/ha): 0
Plant response rating, Barnyardgrass ([15]; 500 g ai/ha): 0
Plant response rating, Kochia (kochia (Kochia scoparia) [16]; 125 g ai/ha): 0
Plant response rating, Kochia (kochia (Kochia scoparia) [16]; 500 g ai/ha): 0
Plant response rating, Barnyardgrass ([17]; 125 g ai/ha): 0
Plant response rating, Barnyardgrass ([17]; 500 g ai/ha): 0
Plant response rating, Foxtail, Giant ([18]; 125 g ai/ha): 0
Plant response rating, Foxtail, Giant ([18]; 500 g ai/ha): 0
Plant response rating, Rice (rice (Oryza sativa)): 0

O=C1NCC(Cc2ccc(C(F)(F)F)cc2)C1C(=O)Nc1cccc(F)c1F (stereo not drawn) [Compound 7]
Plant response rating, Wheat ([1]; 125 g ai/ha): 0
Plant response rating, Wheat ([1]; 500 g ai/ha): 0
Plant response rating, Corn (corn (Zea mays); 125 g ai/ha): 0
Plant response rating, Corn (corn (Zea mays); 500 g ai/ha): 0
Plant response rating, Ragweed ([2]; 125 g ai/ha): 0
Plant response rating, Ragweed ([2]; 500 g ai/ha): 0
Plant response rating, Ragweed ([3]; 125 g ai/ha): 0
Plant response rating, Ragweed ([3]; 500 g ai/ha): 0
Plant response rating, Ryegrass, It. ([4]; 125 g ai/ha): 0
Plant response rating, Ryegrass, It. ([4]; 500 g ai/ha): 0
Plant response rating, Barnyardgrass [5]: 25
Plant response rating, Foxtail, Giant ([6]; 125 g ai/ha): 0
Plant response rating, Foxtail, Giant ([6]; 500 g ai/ha): 20
Plant response rating, Ducksalad [7]: 75
Plant response rating, Blackgrass ([8]; 125 g ai/ha): 0
Plant response rating, Blackgrass ([8]; 500 g ai/ha): 0
Plant response rating, Galium ([9]; 125 g ai/ha): 0
Plant response rating, Galium ([9]; 500 g ai/ha): 0
Plant response rating, Pigweed ([10]; 125 g ai/ha): 0
Plant response rating, Pigweed ([10]; 500 g ai/ha): 0
Plant response rating, Ryegrass, It. ([11]; 125 g ai/ha): 0
Plant response rating, Ryegrass, It. ([11]; 500 g ai/ha): 0
Plant response rating, Pigweed ([12]; 125 g ai/ha): 0
Plant response rating, Pigweed ([12]; 500 g ai/ha): 0
Plant response rating, Sedge, Umbrella [13]: 0
Plant response rating, Kochia (kochia (Kochia scoparia) [14]; 125 g ai/ha): 0
Plant response rating, Kochia (kochia (Kochia scoparia) [14]; 500 g ai/ha): 0
Plant response rating, Barnyardgrass ([15]; 125 g ai/ha): 0
Plant response rating, Barnyardgrass ([15]; 500 g ai/ha): 40
Plant response rating, Kochia (kochia (Kochia scoparia) [16]; 125 g ai/ha): 0
Plant response rating, Kochia (kochia (Kochia scoparia) [16]; 500 g ai/ha): 0
Plant response rating, Barnyardgrass ([17]; 125 g ai/ha): 0
Plant response rating, Barnyardgrass ([17]; 500 g ai/ha): 60
Plant response rating, Foxtail, Giant ([18]; 125 g ai/ha): 0
Plant response rating, Foxtail, Giant ([18]; 500 g ai/ha): 30
Plant response rating, Rice (rice (Oryza sativa)): 0

O=C1NCC(Cc2cccc(F)c2F)C1C(=O)Nc1cccc(F)c1F (stereo not drawn) [Compound 8]
Plant response rating, Wheat ([1]; 125 g ai/ha): 0
Plant response rating, Wheat ([1]; 500 g ai/ha): 0
Plant response rating, Corn (corn (Zea mays); 125 g ai/ha): 0
Plant response rating, Corn (corn (Zea mays); 500 g ai/ha): 0
Plant response rating, Ragweed ([2]; 125 g ai/ha): 0
Plant response rating, Ragweed ([2]; 500 g ai/ha): 0
Plant response rating, Ragweed ([3]; 125 g ai/ha): 0
Plant response rating, Ragweed ([3]; 500 g ai/ha): 0
Plant response rating, Ryegrass, It. ([4]; 125 g ai/ha): 0
Plant response rating, Ryegrass, It. ([4]; 500 g ai/ha): 0
Plant response rating, Barnyardgrass [5]: 0
Plant response rating, Foxtail, Giant ([6]; 125 g ai/ha): 0
Plant response rating, Foxtail, Giant ([6]; 500 g ai/ha): 0
Plant response rating, Ducksalad [7]: 0
Plant response rating, Blackgrass ([8]; 125 g ai/ha): 0
Plant response rating, Blackgrass ([8]; 500 g ai/ha): 0
Plant response rating, Galium ([9]; 125 g ai/ha): 0
Plant response rating, Galium ([9]; 500 g ai/ha): 0
Plant response rating, Pigweed ([10]; 125 g ai/ha): 0
Plant response rating, Pigweed ([10]; 500 g ai/ha): 0
Plant response rating, Ryegrass, It. ([11]; 125 g ai/ha): 0
Plant response rating, Ryegrass, It. ([11]; 500 g ai/ha): 0
Plant response rating, Pigweed ([12]; 125 g ai/ha): 0
Plant response rating, Pigweed ([12]; 500 g ai/ha): 0
Plant response rating, Sedge, Umbrella [13]: 0
Plant response rating, Kochia (kochia (Kochia scoparia) [14]; 125 g ai/ha): 0
Plant response rating, Kochia (kochia (Kochia scoparia) [14]; 500 g ai/ha): 0
Plant response rating, Barnyardgrass ([15]; 125 g ai/ha): 0
Plant response rating, Barnyardgrass ([15]; 500 g ai/ha): 0
Plant response rating, Kochia (kochia (Kochia scoparia) [16]; 125 g ai/ha): 0
Plant response rating, Kochia (kochia (Kochia scoparia) [16]; 500 g ai/ha): 0
Plant response rating, Barnyardgrass ([17]; 125 g ai/ha): 0
Plant response rating, Barnyardgrass ([17]; 500 g ai/ha): 0
Plant response rating, Foxtail, Giant ([18]; 125 g ai/ha): 0
Plant response rating, Foxtail, Giant ([18]; 500 g ai/ha): 50
Plant response rating, Rice (rice (Oryza sativa)): 0
